Measured values reported in BindingDB's records for doi:10.1021/jm00038a002 (George Washington University Medical Center, 1994).

Key:
[1] = target: Sigma non-opioid intracellular receptor 1 (Cavia porcellus) (UniProt Q60492); test: Binding affinity against sigma-1 receptor in guinea pig brain using [3H](+)-pentazocine as radioligand
[2] = target: Sigma non-opioid intracellular receptor 1 (Cavia porcellus) (UniProt Q60492); test: Binding affinity against sigma-1 receptor in guinea pig brain using [3H](+)-pentazocine as radioligand.

Chain of Sigma non-opioid intracellular receptor 1 (Cavia porcellus) (Q60492 whole entry, looked up): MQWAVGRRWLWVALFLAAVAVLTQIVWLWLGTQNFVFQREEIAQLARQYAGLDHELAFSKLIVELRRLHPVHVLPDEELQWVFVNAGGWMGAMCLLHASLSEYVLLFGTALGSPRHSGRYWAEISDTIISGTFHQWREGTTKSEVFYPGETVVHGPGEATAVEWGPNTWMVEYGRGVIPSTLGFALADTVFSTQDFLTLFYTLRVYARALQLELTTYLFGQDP

Ki [1]	Ki [2]	SMILES
3.02 nM	–	O=C(NC1CCN(Cc2ccccc2)CC1)c1cccc(I)c1 [N-(1-Benzyl-piperidin-4-yl)-3-iodo-benzamide]
–	1.64 nM	O=C(NC1CCN(Cc2ccccc2)CC1)c1ccccc1I [N-(1-Benzyl-piperidin-4-yl)-2-iodo-benzamide]
